28 compounds from patent US10562909B2, “Fused quadracyclic compounds, compositions and uses thereof” (Tabomedex Biosciences, LLC, priority 2016, dated 2020) can be followed below.

The assay has as its target MAPKAPK2 (Homo sapiens, UniProt P49137). Briefly: MK2 Enzymatic Assay. The settings on record: 0.5 nM MAPKAPK2, 3 μM ATP, 2 μM Ser/Thr4 peptide, 23° C., values given as concentration bins. The assay is classed as biochemical. The procedure, abridged: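 Percent phosphorylation was derived from coumarin and fluorescein emissions relative to 0% and 100% phospho-peptide controls, read after a 120 min development step. Reactions used 2× stocks of 1 nM kinase, 4 μM peptide and 6 μM ATP; enzyme and peptide sat 20 min before a 120 min ATP reaction.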

Sequence of MAPKAPK2 (P49137 whole entry, species assumed): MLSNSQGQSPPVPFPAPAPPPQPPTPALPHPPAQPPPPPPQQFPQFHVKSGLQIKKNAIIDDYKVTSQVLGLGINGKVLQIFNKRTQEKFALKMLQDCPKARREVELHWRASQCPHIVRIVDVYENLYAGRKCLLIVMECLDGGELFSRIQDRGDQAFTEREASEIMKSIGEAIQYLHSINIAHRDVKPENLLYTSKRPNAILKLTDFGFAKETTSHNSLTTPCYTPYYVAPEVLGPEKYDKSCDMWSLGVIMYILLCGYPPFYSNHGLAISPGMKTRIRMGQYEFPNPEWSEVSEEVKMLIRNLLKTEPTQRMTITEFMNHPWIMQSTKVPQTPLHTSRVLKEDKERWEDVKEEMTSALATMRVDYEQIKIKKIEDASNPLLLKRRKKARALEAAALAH

A word on the IC50: it is the concentration that gives 50% inhibition. Regarding `CN(C)[C@@H]1CCN(c2cc3c(cn2)-n2cnnc2-c2cc(-c4ccc(C#N)cc4)cn2C3)C1` [Compound 319, (R)-4-(7-(3-(dimethylamino)pyrrolidin-1-yl)-9H-pyrido[3,4-e]pyrrolo[1,2-a][1,2,4]triazolo[3,4-c][1,4]diazepin-12-yl)benzonitrile], the IC50 fell in the range of 50 to 100 nM. The compound `CN(C)C1CCN(c2cc3c(cn2)-n2cnnc2-c2cc(-c4ccc(C#N)cc4)cn2C3)CC1` [Compound 321, 4-(7-(4-(dimethylamino)piperidin-1-yl)-9H-pyrido[3,4-e]pyrrolo[1,2-a][1,2,4]triazolo[3,4-c][1,4]diazepin-12-yl)benzonitrile] displayed an IC50 of 100 to 200 nM. The compound `CN1CC2(CCN(c3cc4c(cn3)-n3ccnc3-c3cc(-c5ccc(C#N)cc5)cn3C4)C2)C1` [Compound 322, 4-(7-(2-methyl-2,6-diazaspiro[3.4]octan-6-yl)-9H-imidazo[2,1-c]pyrido[3,4-e]pyrrolo[1,2-a] [1,4]diazepin-12-yl)benzonitrile] had a half-inhibitory concentration (IC50) of 100 to 200 nM.

The compound `N#Cc1ccc(-c2cc3n(c2)Cc2cc(N4CCC5(CNC5)C4)ncc2-n2ccnc2-3)cc1` [Compound 323, 4-(7-(2,6-diazaspiro[3.4]octan-6-yl)-9H-imidazo[2,1-c]pyrido[3,4-e]pyrrolo[1,2-a][1,4]diazepin-12-yl)benzonitrile] displayed an IC50 of 50 to 100 nM. The compound `CNCC1CN(c2cc3c(cn2)-n2cnnc2-c2cc(-c4ccc(F)cc4)cn2C3)C1` [Compound 330, 1-(1-(12-(4-fluorophenyl)-9H-benzo[e]pyrrolo[1,2-a][1,2,4]triazolo[3,4-c][1,4]diazepin-7-yl)azetidin-3-yl)-N-methylmethanamine] showed a concentration for half-maximal inhibition (IC50) of 50 to 100 nM. Under `CN1CC2(CCN(c3ccc4c(c3)Cn3cc(-c5ccc(F)cc5)cc3-c3nncn3-4)C2)C1` [Compound 332, 12-(4-fluorophenyl)-7-(2-methyl-2,6-diazaspiro[3.4]octan-6-yl)-9H-benzo[e]pyrrolo[1,2-a] [1,2,4]triazolo[3,4-c][1,4]diazepine] stands less than 50 nM. For `NC[C@H]1CCN(c2ccc3c(c2)Cn2cc(-c4ccc(F)cc4)cc2-c2nncn2-3)C1` [Compound 334, (R)-(1-(12-(4-fluorophenyl)-9H-benzo[e]pyrrolo[1,2-a][1,2,4]triazolo[3,4-c][1,4]diazepin-7-yl)pyrrolidin-3-yl)methanamine], the IC50 was less than 50 nM. For `Fc1ccc(-c2cc3n(c2)Cc2cc(N4CCC5(CNC5)C4)ccc2-n2cnnc2-3)cc1` [Compound 336, 12-(4-fluorophenyl)-7-(2,6-diazaspiro[3.4]octan-6-yl)-9H-benzo[e]pyrrolo[1,2-a][1,2,4] triazolo[3,4-c][1,4]diazepine], the half-maximal inhibitory concentration (IC50) was less than 50 nM. Under `CNCC1CN(c2ccc3c(c2)Cn2cc(-c4ccc(F)cc4)cc2-c2nccn2-3)C1` [Compound 341, 1-(1-(12-(4-fluorophenyl)-9H-benzo[e]imidazo[2,1-c]pyrrolo[1,2-a][1,4]diazepin-7-yl)azetidin-3-yl)-N-methylmethanamine] stands less than 50 nM.

Consider `CNCC1CCN(c2ccc3c(c2)Cn2cc(-c4ccc(F)cc4)cc2-c2nccn2-3)C1` (stereo not shown) [Compound 342, 1-(1-(12-(4-fluorophenyl)-9H-benzo[e]imidazo[2,1-c]pyrrolo[1,2-a][1,4]diazepin-7-yl)pyrrolidin-3-yl)-N-methylmethanamine], for which the half-inhibitory concentration (IC50) is less than 50 nM. `CN1CC2(CCN(c3ccc4c(c3)Cn3cc(-c5ccc(F)cc5)cc3-c3nccn3-4)C2)C1` [Compound 344, 12-(4-fluorophenyl)-7-(2-methyl-2,6-diazaspiro[3.4]octan-6-yl)-9H-benzo[e]imidazo[2,1-c] pyrrolo[1,2-a][1,4]diazepine]: the IC50 was less than 50 nM. `CN(C)C[C@@H]1CCN(c2ccc3c(c2)Cn2cc(-c4ccc(F)cc4)cc2-c2nccn2-3)C1` [Compound 345, (S)-1-(1-(12-(4-fluorophenyl)-9H-benzo[e]imidazo[2,1-c]pyrrolo[1,2-a][1,4]diazepin-7-yl)pyrrolidin-3-yl)-N,N-dimethylmethanamine] showed an IC50 of less than 50 nM. In the case of `CN(C)C[C@H]1CCN(c2ccc3c(c2)Cn2cc(-c4ccc(F)cc4)cc2-c2nccn2-3)C1` [Compound 346, (R)-1-(1-(12-(4-fluorophenyl)-9H-benzo[e]imidazo[2,1-c]pyrrolo[1,2-a][1,4]diazepin-7-yl)pyrrolidin-3-yl)-N,N-dimethylmethanamine], the IC50 is less than 50 nM. Turning to `CNC[C@@H]1CCN(c2ccc3c(c2)Cn2cc(-c4ccc(F)cc4)cc2-c2nccn2-3)C1` [Compound 347, (S)-1-(1-(12-(4-fluorophenyl)-9H-benzo[e]imidazo[2,1-c]pyrrolo[1,2-a][1,4]diazepin-7-yl)pyrrolidin-3-yl)-N-methylmethanamine], the concentration for half-maximal inhibition (IC50) was less than 50 nM. Under `CNC[C@H]1CCN(c2ccc3c(c2)Cn2cc(-c4ccc(F)cc4)cc2-c2nccn2-3)C1` [Compound 348, (R)-1-(1-(12-(4-fluorophenyl)-9H-benzo[e]imidazo[2,1-c]pyrrolo[1,2-a][1,4]diazepin-7-yl)pyrrolidin-3-yl)-N-methylmethanamine] stands less than 50 nM; under `CN(C)C[C@H]1CN(c2ccc3c(c2)Cn2cc(-c4ccc(F)cc4)cc2-c2nccn2-3)C[C@H]1O` [Compound 349, (3S,4S)-4-((dimethylamino)methyl)-1-(12-(4-fluorophenyl)-9H-benzo[e]imidazo[2,1-c]pyrrolo[1,2-a][1,4]diazepin-7-yl)pyrrolidin-3-ol], less than 50 nM; under `CN(C)C[C@@H]1CN(c2ccc3c(c2)Cn2cc(-c4ccc(F)cc4)cc2-c2nccn2-3)C[C@@H]1O` [Compound 350, (3R,4R)-4-((dimethylamino)methyl)-1-(12-(4-fluorophenyl)-9H-benzo[e]imidazo[2,1-c]pyrrolo[1,2-a][1,4]diazepin-7-yl)pyrrolidin-3-ol], less than 50 nM. For the compound `CN(C)[C@@H]1CN(c2ccc3c(c2)Cn2cc(-c4ccc(F)cc4)cc2-c2nccn2-3)C[C@H]1O` [Compound 351, (3R,4R)-4-(dimethylamino)-1-(12-(4-fluorophenyl)-9H-benzo[e]imidazo[2,1-c]pyrrolo[1,2-a] [1,4]diazepin-7-yl)pyrrolidin-3-ol], the concentration for half-maximal inhibition (IC50) was less than 50 nM. Consider `CN(C)[C@H]1CN(c2ccc3c(c2)Cn2cc(-c4ccc(F)cc4)cc2-c2nccn2-3)C[C@@H]1O` [Compound 352, (3S,4S)-4-(dimethylamino)-1-(12-(4-fluorophenyl)-9H-benzo[e]imidazo[2,1-c]pyrrolo[1,2-a] [1,4]diazepin-7-yl)pyrrolidin-3-ol], for which the IC50 is less than 50 nM.

As to `CN(C)[C@@H]1CN(c2ccc3c(c2)Cn2cc(-c4ccc(F)cc4)cc2-c2nccn2-3)C[C@@H]1O` [Compound 353, (3S,4R)-4-(dimethylamino)-1-(12-(4-fluorophenyl)-9H-benzo[e]imidazo[2,1-c]pyrrolo[1,2-a] [1,4]diazepin-7-yl)pyrrolidin-3-ol], the IC50 was less than 50 nM.

Take `C[C@H](CO)NC[C@@H]1CCN(c2ccc3c(c2)Cn2cc(-c4ccc(F)cc4)cc2-c2nccn2-3)C1` [Compound 354, (R)-2-((((S)-1-(12-(4-fluorophenyl)-9H-benzo[e]imidazo[2,1-c]pyrrolo[1,2-a][1,4]diazepin-7-yl)pyrrolidin-3-yl)methyl)amino)propan-1-ol]: the IC50 was less than 50 nM. Under `C[C@H](CO)NC[C@H]1CCN(c2ccc3c(c2)Cn2cc(-c4ccc(F)cc4)cc2-c2nccn2-3)C1` [Compound 355, (R)-2-((((R)-1-(12-(4-fluorophenyl)-9H-benzo[e]imidazo[2,1-c]pyrrolo[1,2-a][1,4]diazepin-7-yl)pyrrolidin-3-yl)methyl)amino)propan-1-ol] stands less than 50 nM; under `CN(C)C[C@H]1CN(c2ccc3c(c2)Cn2cc(-c4ccc(F)cc4)cc2-c2nccn2-3)C[C@@H]1O` [Compound 356, (3R,4S)-4-((dimethylamino)methyl)-1-(12-(4-fluorophenyl)-9H-benzo[e]imidazo[2,1-c]pyrrolo[1,2-a][1,4]diazepin-7-yl)pyrrolidin-3-ol], less than 50 nM; under `CN(C)C[C@@H]1CN(c2ccc3c(c2)Cn2cc(-c4ccc(F)cc4)cc2-c2nccn2-3)C[C@H]1O` [Compound 357, (3S,4R)-4-((dimethylamino)methyl)-1-(12-(4-fluorophenyl)-9H-benzo[e]imidazo[2,1-c]pyrrolo[1,2-a][1,4]diazepin-7-yl)pyrrolidin-3-ol], less than 50 nM. In turn, `CC(C)[C@H](CO)NC[C@H]1CCN(c2ccc3c(c2)Cn2cc(-c4ccc(F)cc4)cc2-c2nccn2-3)C1` [Compound 358, (R)-2-((((R)-1-(12-(4-fluorophenyl)-9H-benzo[e]imidazo[2,1-c]pyrrolo[1,2-a][1,4]diazepin-7-yl)pyrrolidin-3-yl)methyl)amino)-3-methylbutan-1-ol] returned an IC50 of less than 50 nM. Compound `CC(C)[C@@H](CO)NC[C@H]1CCN(c2ccc3c(c2)Cn2cc(-c4ccc(F)cc4)cc2-c2nccn2-3)C1` [Compound 359, (S)-2-((((R)-1-(12-(4-fluorophenyl)-9H-benzo[e]imidazo[2,1-c]pyrrolo[1,2-a][1,4]diazepin-7-yl)pyrrolidin-3-yl)methyl)amino)-3-methylbutan-1-ol] displayed an IC50 of less than 50 nM. The compound `CC(C)(CO)NC[C@@H]1CCN(c2ccc3c(c2)Cn2cc(-c4ccc(F)cc4)cc2-c2nccn2-3)C1` [Compound 360, (S)-2-(((1-(12-(4-fluorophenyl)-9H-benzo[e]imidazo[2,1-c]pyrrolo[1,2-a][1,4]diazepin-7-yl)pyrrolidin-3-yl)methyl)amino)-2-methylpropan-1-ol] came in with an IC50 of less than 50 nM. For `OC1CCN(C[C@@H]2CCN(c3ccc4c(c3)Cn3cc(-c5ccc(F)cc5)cc3-c3nccn3-4)C2)CC1` [Compound 361, (S)-1-((1-(12-(4-fluorophenyl)-9H-benzo[e]imidazo[2,1-c]pyrrolo[1,2-a][1,4]diazepin-7-yl)pyrrolidin-3-yl)methyl)piperidin-4-ol] the value was less than 50 nM.
